Experimental data from PMC7238241, “Lack of Correlation between In Vitro and In Vivo Studies on the Inhibitory Effects of (‒)-Sophoranone on CYP2C9 Is Attributable to Low Oral Absorption and Extensive Plasma Protein Binding of (‒)-Sophoranone” (Pharmaceutics, 2020).
Like-named read-outs stand apart in the source and are kept apart here. One block for each compound: values may come before it.

Key:
[1] = Effects of SPN on the pharmacokinetics of diclofenac in rats; settings: male, Sprague-Dawley, rat, plasma, po, 2 mg/kg, oral diclofenac 2 mg/kg, n = 6; for AUC(0-t): AUCt; for AUC(0-t) / AUC(0-inf) / Cmax / Tmax: rats; for Tmax: median (ranges); for half-life: t1/2, rats
Experimental: (§4) The carotid arteries of each rat were cannulated with a polyethylene tube (Clay Adams, Franklin Lakes, NJ, USA) for blood sampling. Each rat was individually housed in a rat metabolic cage and allowed to recover from anesthesia for 4–5 h prior to the start of the experiment. […] SPN was suspended in dimethylsulfoxide:PEG400:distilled water (5:60:35, v/v/v) and administered by oral gavage at a dose of 75 mg/kg in a volume of 5 mL/kg. […] The blood samples were immediately centrifuged at 13,000× g for 5 min at 4 °C. The plasma samples were divided into two Eppendorf tubes by 50 μL and stored at −80 °C until LC-MS/MS analysis.
(§5) Briefly, 50 μL aliquots of plasma were extracted with 300 μL aliquots of acetonitrile containing chlorpropamide (internal standard), followed by LC-MS/MS (Shimadzu Corporation). Chromatographic separation was performed on a Phenomenex Luna C18 column (100 × 2.00 mm; 3.0 μm). The isocratic mobile phase consisted of 0.1% formic acid in distilled water (A) and 0.1% formic acid in acetonitrile (B) (45:55, v/v), with a flow rate of 0.3 mL/min. […] The data acquisition was computed using LabSolutions LCMS Ver.5.6 (Shimadzu Corporation).
(§6) Pharmacokinetic parameters were calculated by a non-compartmental analysis using WinNonlin Professional software (version 5.2, Pharsight Corp., Mountain View, CA, USA) that used the total area under the plasma concentration–time curve from time zero to infinity (AUC∞) or the last measured time (AUCt). The logarithmic trapezoidal rule was used during the declining plasma level phase and the linear trapezoidal rule was used for the rising plasma-level phase. The peak plasma concentration (Cmax) and time to reach Cmax (Tmax) were read directly from the experimental data. Statistically significant differences were recognized at p < 0.05.

in vivo = settings: male, Sprague-Dawley, rat, po, 2 mg/kg
Experimental: as §4, §5, §6

[2] = male, Sprague-Dawley, rat, in vivo, po, 2 mg/kg
Experimental: as §4, §5, §6

CYP2E1 = molecular target: T1, CYP2E1 (Homo sapiens, UniProt P05181); assay: Reversible CYP2E1 inhibition, cocktail assay (chlorzoxazone 6-hydroxylase) in human liver microsomes; type: biochemical
T1 construct: tissue Corning Life Sciences; host or cells: pooled human liver microsomes, 150 donors
Experimental: (§1) The inhibitory effects of SPN on CYP1A2, CYP2A6, CYP2B6, CYP2C8, CYP2C9, CYP2C19, CYP2D6, CYP2E1, and CYP3A4 were evaluated in pooled human liver microsomes through the use of specific CYP probe substrates (cocktail assay), as previously described with a slight modification. Concentrations of each CYP probe in Table 1 were used close to their reported Km values.
(§2) Briefly, a 90-µL incubation mixture, including pooled human liver microsomes (final concentration 0.1 mg/mL), 50 mM phosphate buffer (pH 7.4), each CYP-probe substrate cocktail set, and SPN (0–50 μM), was pre-incubated for 5 min at 37 °C. SPN was dissolved in methanol and spiked into the incubation mixture to a final concentration of 0.5% methanol. All P450-selective substrates (except coumarin due to solubility) were dissolved in methanol and serially diluted with methanol to the required concentrations, and the organic solvent was subsequently evaporated under a gentle stream of N2 gas to minimize the effects of organic solvents on CYP activities. On the other hand, coumarin dissolved in 50 mM phosphate buffer (pH 7.4) was directly added into the mixed tube. The reaction was initiated by adding 10-µL aliquot of NADPH-generating system (1.3 mM NADP^+, 3.3 mM glucose 6-phosphate, 3.3 mM MgCl2, and 0.4 unit/mL glucose-6-phosphate dehydrogenase) before 15 min incubation at 37 °C in a shaking water bath. […]
(§3) The IC50 values were calculated via nonlinear least-squares regression analysis from logarithmic plots of inhibitor concentration versus percentage of activity remaining after inhibition, using SigmaPlot (ver. 14.0; Systat Software Inc, Chicago, IL, USA). The Ki values were determined from the equations for a single substrate single inhibitor model and the software available in the SigmaPlot Enzyme Kinetics module. Competitive, non-competitive, uncompetitive, or mixed inhibition models were evaluated and ranked according to the best fit based on Akaike Information Criterion (AIC) values. […]

[3] = cited from earlier work
CYP2C8 = settings: in humans; cited from earlier work
CYP1A2 = settings: not in vivo because of high plasma protein binding; cited from earlier work
CYP2A6 = molecular target: T2, CYP2A6 (Homo sapiens, UniProt P11509); assay: Reversible CYP2A6 inhibition, cocktail assay (coumarin 7-hydroxylase) in human liver microsomes; type: biochemical
T2 construct: tissue Corning Life Sciences; host or cells: pooled human liver microsomes, 150 donors
T2 sequence (P11509 1-494): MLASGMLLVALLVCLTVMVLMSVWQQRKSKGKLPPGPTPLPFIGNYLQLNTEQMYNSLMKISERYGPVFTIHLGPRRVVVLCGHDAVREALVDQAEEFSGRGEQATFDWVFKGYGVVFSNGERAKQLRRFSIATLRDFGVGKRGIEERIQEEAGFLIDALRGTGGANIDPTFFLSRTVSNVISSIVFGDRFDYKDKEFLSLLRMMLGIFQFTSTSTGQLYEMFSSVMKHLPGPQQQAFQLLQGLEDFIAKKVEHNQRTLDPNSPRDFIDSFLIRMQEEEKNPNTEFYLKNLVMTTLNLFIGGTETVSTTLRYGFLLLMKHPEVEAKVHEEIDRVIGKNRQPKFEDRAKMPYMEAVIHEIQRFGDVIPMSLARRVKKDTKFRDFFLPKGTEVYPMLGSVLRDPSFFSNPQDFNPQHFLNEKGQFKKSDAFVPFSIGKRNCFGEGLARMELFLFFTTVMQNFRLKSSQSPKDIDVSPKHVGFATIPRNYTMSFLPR
Experimental: as §1, §2, §3

[4] = Bi-directional Caco-2 cell permeability; type: in vitro ADME; settings: human, Caco-2; 10 μM, 2 h, n = 3
Experimental: Caco-2 cell permeability was assessed to predict the oral absorption of SPN. Cell culture and transport studies were performed as previously described. Briefly, for the bi-directional transport studies, the cells were seeded at a density of 1 × 10^5 cells/well, and the cell medium was replaced until they formed confluent monolayers. On the 25th day, the cell monolayers were washed with pre-warmed HBSS buffer. […] Before the experiment, the integrity of the cell monolayers was evaluated by measuring the transepithelial electrical resistance using a Millicell ohmmeter. After 2 h incubation at 37 °C, samples were withdrawn from both sides, respectively. All samples were stored at −80 °C until LC-MS/MS analysis, and all experiments were performed in triplicate.
The apparent permeability coefficient (Papp) was calculated using the following equation. Papp = (Vr/C0) × (1/A) × ([Drug]/t) where, Vr is the volume of medium in the receiver chamber, C0 is the donor compartment concentration at time zero, A is the area of the cell monolayer, t is the treatment time of the drug, and [Drug] is the drug concentration in the receiver chamber.

T1 sequence (P05181 whole entry): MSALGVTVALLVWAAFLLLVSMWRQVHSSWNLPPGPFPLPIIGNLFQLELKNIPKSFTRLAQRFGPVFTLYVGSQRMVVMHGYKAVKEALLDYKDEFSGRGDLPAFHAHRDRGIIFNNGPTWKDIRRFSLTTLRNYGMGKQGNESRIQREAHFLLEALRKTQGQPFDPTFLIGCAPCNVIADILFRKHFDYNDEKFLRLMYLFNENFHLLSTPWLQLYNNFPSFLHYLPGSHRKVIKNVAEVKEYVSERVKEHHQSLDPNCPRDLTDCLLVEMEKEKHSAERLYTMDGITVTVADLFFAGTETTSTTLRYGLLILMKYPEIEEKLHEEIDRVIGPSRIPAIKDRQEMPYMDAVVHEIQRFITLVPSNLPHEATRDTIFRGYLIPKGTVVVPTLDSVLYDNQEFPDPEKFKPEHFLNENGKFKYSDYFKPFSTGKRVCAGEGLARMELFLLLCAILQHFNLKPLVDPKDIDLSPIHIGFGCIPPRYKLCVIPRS

- AUC(0-t) ([1]; with oral SPN 75 mg/kg): 742 ng·h/mL
- AUC(0-t) ([1]; without SPN): 747 ng·h/mL
- AUC(0-inf) ([1]; with oral SPN 75 mg/kg): 1130 ng·h/mL
- AUC(0-inf) ([1]; without SPN): 1140 ng·h/mL
- Cmax ([1]; with oral SPN 75 mg/kg): 173 ± 40.8 ng/mL
- Cmax ([1]; without SPN): 180 ± 55.2 ng/mL
- Tmax ([1]; with oral SPN 75 mg/kg): 15 min
- Tmax ([1]; without SPN): 10 min
- half-life ([1]; with oral SPN 75 mg/kg): 296 ± 59.7 min
- half-life ([1]; without SPN): 278 ± 70 min
SMILES: O=C(O)Cc1ccccc1Nc1c(Cl)cc(O)cc1Cl [4′-hydroxydiclofenac]

- AUC(0-t) (in vivo; AUCt): 1060 ng·h/mL
- AUC(0-inf) (in vivo; AUC∞): 1200 ng·h/mL
- Cmax (in vivo; Cmax): 882 ± 245 ng/mL
- Tmax (in vivo; Tmax, median (ranges)): 5 min
- half-life (in vivo; t1/2): 153 ± 60.1 min
- AUCt [2]: 69.4 ± 2.98 µg·min/mL
SMILES: O=C(O)Cc1ccccc1Nc1c(Cl)cccc1Cl [Diclofenac]

- IC50 (CYP2E1): 12 ± 3.67 µM
SMILES: CCN(CC)C(=S)S [Diethyldithiocarbamate, reference compound]

SMILES: CC(C)(O)c1ccccc1CC[C@@H](SCC1(CC(=O)O)CC1)c1cccc(/C=C/c2ccc3ccc(Cl)cc3n2)c1 [Montelukast]
- plasma protein binding ([3]; reference not given): > 99.7%
- effect on the pharmacokinetics of the CYP2C8 substrates pioglitazone and rosiglitazone (CYP2C8): no effect

SMILES: Cc1c(Cl)cccc1Nc1ccccc1C(=O)O [Tolfenamic acid]
- plasma protein binding [3]: 99.7%
- CYP1A2 inhibition in vitro (CYP1A2): strongly inhibited CYP1A2 in vitro

SMILES: NCCc1c[nH]c2ccccc12 [Tryptamine, reference compound]
- IC50 (CYP2A6): 2980 ± 635 nM

- Papp B→A at 2 h, 10 µM [4]: 21.5 ± 2.19 ×10⁻⁶ cm/s
SMILES: CC(C)NCC(O)COc1cccc2ccccc12 (centres unmarked) [propranolol, reference compound]
